Measured values taken from ChEMBL document CHEMBL5252604, “11C-Labeling of acyclic retinoid peretinoin by rapid C-[11C]methylation to disclose novel brain permeability and central nervous system activities hidden in antitumor agent” (Bioorg Med Chem Lett, 2023).

Key:
[1] = Drug uptake in iv dosed Wistar rat assessed as standardized uptake value by PET imaging analysis; assay type: ADME, organism-based; details: in vivo
[2] = Drug metabolism in iv dosed Wistar rat brain assessed as metabolite formation after 30 to 90 mins RP-HPLC analysis; assay type: ADME, organism-based; details: in vivo, time 30-90 min
[3] = Drug uptake in iv dosed mouse liver assessed as standardized uptake value at 60 mins by PET imaging analysis; assay type: ADME, organism-based; details: in vivo, 1 h
[4] = Drug uptake in iv dosed monkey brain assessed as standardized uptake value after 90 mins by PET imaging analysis; assay type: ADME, organism-based, Macaca mulatta; details: rhesus monkey, in vivo, 1.5 h
[5] = Drug metabolism in iv dosed Wistar rat blood assessed as metabolite formation after 30 mins RP-HPLC analysis; assay type: ADME, organism-based; details: in vivo, 0.5 h
[6] = Drug uptake in iv dosed Wistar rat brain assessed as standardized uptake value after 120 mins by PET imaging analysis; assay type: ADME, organism-based; details: in vivo, 2 h
[7] = Drug uptake in iv dosed mouse liver assessed as standardized uptake value at 5 mins by PET imaging analysis; assay type: ADME, organism-based; details: in vivo
[8] = Drug uptake in iv dosed mouse brain assessed as standardized uptake value by PET imaging analysis; assay type: ADME, organism-based; details: in vivo
[9] = Drug uptake in iv dosed Wistar rat brain after 3 mins; assay type: ADME, organism-based; details: in vivo, 0.05 h

SUV [1]	Drug metabolism [2]	SUV [3]	SUV [4]	Drug metabolism [5]	SUV [6]	SUV [7]	SUV [8]	Drug uptake [9]	Structure (SMILES)
0.6	–	–	–	–	–	–	–	–	CC(C)=CCC/C(C)=C/CC/C(C)=C/C=C/C([11CH3])=C/C(=O)OCc1ccccc1
–	Metabolite_Detected	4.3	> 3	Metabolite_Detected	1.4	6.7	0.8	Active	CC(C)=CCC/C(C)=C/CC/C(C)=C/C=C/C([11CH3])=C/C(=O)O
